The values that follow come from PMC12305494, “Discovery of PXR Antagonist MI891 and PXR Degrader MI1013 and Their Roles in Hepatic Gene Regulation” (Journal of Medicinal Chemistry, 2025).

Format in all cases: cell-based
The target in data set [1] is AhR (Homo sapiens, UniProt P35869). Description: AhR agonist reporter assay. The conditions noted are these: 10 µM MI891. The protocol:
(§1) For the farnesoid X receptor (FXR) luciferase gene reporter assay, the full-length expression vector was paired with pFXRE-luc luciferase construct. The p1A1-luc construct was used in the aryl hydrocarbon receptor (AhR) assays with pRL-TK for normalization. Gal4-LXR-α/β, and Gal4-PPAR-γ constructs were used with the pGAL4 UAS-luc construct. For the VDR assay, expression vector pSG5-hVDR together with pVDRE-luc constructs was used. Firefly and Renilla luciferase activities were analyzed using a Dual reporter assay (Promega). For the nuclear receptor assays, prototype ligands were used at the following concentrations: Calcitriol for VDR (100 nM), GW3965 for LXRα and LXRβ (10 μM), 6-OCA for FXR (1 μM), fenofibrate for PPARα (10 μM), estradiol for ERα and β (10 μM), rosiglitazone for PPARγ (10 μM), 3-MC for AhR (5 μM), and TCPOBOP for mCAR (10 μM). Detailed descriptions and protocols are detailed in our recent publication. , […]
(§2) hydrophobic interactions. (F) Superimposed diagram of PXR bound with agonist (SJPYT-328) and antagonists (MI891 and SJPYT-331) to differentiate the agonist and antagonist interactions with helix 12 (H12). The interaction of the agonist with PXR residue (L428) is circled. (G) Extended nuclear receptor selectivity profile. […]

For data set [2], the target named is T1, PPARγ (Homo sapiens, UniProt P37231).
T1 construct: expressed in transfected cells
Description: PPARγ agonist reporter assay. The conditions noted are these: 10 µM MI891. As for the experimental part: as §1, §2
(In a reporter assay the amount or activity of a reporter protein is the signal.)

Data set [3] deals with T2, PXR (Homo sapiens, UniProt O75469+Q96SW2).
T2 construct: differentiated hepatic HepaRG cells, which naturally express high PXR activity and expression; endogenous in cells; host or cells: differentiated HepaRG
Description: Western blot of PXR in differentiated HepaRG cells. As for the experimental part:
The harvested HepaRG cells were lysed in RIPA lysis buffer (Cat. no 89900, Thermo Scientific) containing Halt protease inhibitor cocktail inhibitors (Thermo Scientific). Protein concentration was measured using the Pierce BCA Protein Assay Kit (Cat. no. 23225, Thermo Scientific), samples were diluted in 4 × Laemmli sample buffer (Cat. no. 1610747, BioRad) supplemented with mercaptoethanol and heated at 95 °C for 5 min. Equal amounts of protein were loaded in 4–20% Mini-PROTEAN TGX Stain-Free Protein Gels (12 well. cat. no. 4561095 or 15 well, cat. no. 4568096, Bio-Rad), electrophorised, and transferred onto Trans-Blot Turbo Midi-size PVDF Membrane (cat. no. 1704273, Bio-Rad), and blocked with EveryBlot Blocking buffer for 10 min (cat. no. 12010020, Bio-Rad). The membranes were incubated overnight at 4 °C with the following antibodies: PXR polyclonal antibody (1:500, PA5–41170, Invitrogen), RXRA polyclonal antibody (1:1000, 21218–1-AP, Proteintech), and GSPT1 polyclonal antibody (1:1000, 10763-a-AP, Proteintech), washed with TBS-T for 3 times, and followed by incubation with goat antirabbit IgG (H + L) Secondary antibody, HRP (1:200, 000, 1 h, cat. no. 31460, Invitrogen). Chemiluminescence signals were detected using SuperSignal West Femto Maximum Sensitivity Substrate (cat. no. 34096, Thermo Scientific) and visualized by the ChemiDoc MP Imaging system (Universal Hood III, #731BR02821, Bio-Rad), and the bands were quantified using β-actin (1:2000, recombinant rabbit conjugated monoclonal antibody (JF53-10), cat. no. MA5-32540, Invitrogen) as loading control with ImageJ (version 1.54g) software.
(In general: In western blotting, separated proteins are transferred to a membrane and probed.)

Data set [4] addresses T3, PXR-HiBiT (Homo sapiens, UniProt O75469+Q96SW2).
T3 construct: host or cells: HepG2
Kind of data set: Nano-Glo HiBiT lytic assay in HepG2 cells. The conditions noted are these: HepG2, 10 μM, 8 h, 0.3 ng PXR-HiBiT vector. The protocol:
For HiBiT assay, HepG2 cells (40,000 cells/well) were seeded in a 48-well plate. The following day, cells were transfected with 0.3–100 ng of PXR-HiBiT (GenScript-HiBiT_NR1I2_OHu23779D_pcDNA3.1+/C-(K)-DYK) and 0.3–100 ng of CRBN (GenScript-CRBN_OHu21180D_pcDNA3.1+/C-(K)-DYK) in a 1:1 ratio using Lipofectamine 3000 (ThermoFisher Scientific), following the manufacturer’s protocol. After 24 h, cells were treated with varying concentrations of MI1013, and vehicle (0.1% DMSO). The plates were incubated for 8 h, and the HiBiT NanoLuc signal was measured using the Nano-Glo HiBiT Lytic Detection System (Promega; […]) in a Synergy microplate reader (Biotek) under luminescence mode with a read time of 0.2 s/well, gain set as auto, and integration time 2 s. Results are reported as relative abundance or response (%) change relative to DMSO control cells. […] The DC50 value was calculated using a curve fit–log(inhibitor) vs response–with a variable slope (four-parameter) logistic fitting using GraphPad Prism.
On the technique in general: The HiBiT peptide binds its large partner to form an active luciferase.

T2 sequence (O75469 whole entry): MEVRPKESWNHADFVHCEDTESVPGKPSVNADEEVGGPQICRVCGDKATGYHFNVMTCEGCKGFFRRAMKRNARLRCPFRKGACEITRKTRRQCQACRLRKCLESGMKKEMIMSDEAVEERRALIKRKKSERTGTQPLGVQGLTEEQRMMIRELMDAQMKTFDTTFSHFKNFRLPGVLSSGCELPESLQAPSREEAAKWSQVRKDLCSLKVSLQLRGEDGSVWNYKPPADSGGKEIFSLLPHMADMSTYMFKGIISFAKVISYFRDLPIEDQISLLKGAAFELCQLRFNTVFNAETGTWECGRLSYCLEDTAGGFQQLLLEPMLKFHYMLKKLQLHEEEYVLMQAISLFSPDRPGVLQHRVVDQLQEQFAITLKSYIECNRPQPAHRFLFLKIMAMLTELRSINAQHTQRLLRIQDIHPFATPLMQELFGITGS
T2 sequence (Q96SW2 whole entry): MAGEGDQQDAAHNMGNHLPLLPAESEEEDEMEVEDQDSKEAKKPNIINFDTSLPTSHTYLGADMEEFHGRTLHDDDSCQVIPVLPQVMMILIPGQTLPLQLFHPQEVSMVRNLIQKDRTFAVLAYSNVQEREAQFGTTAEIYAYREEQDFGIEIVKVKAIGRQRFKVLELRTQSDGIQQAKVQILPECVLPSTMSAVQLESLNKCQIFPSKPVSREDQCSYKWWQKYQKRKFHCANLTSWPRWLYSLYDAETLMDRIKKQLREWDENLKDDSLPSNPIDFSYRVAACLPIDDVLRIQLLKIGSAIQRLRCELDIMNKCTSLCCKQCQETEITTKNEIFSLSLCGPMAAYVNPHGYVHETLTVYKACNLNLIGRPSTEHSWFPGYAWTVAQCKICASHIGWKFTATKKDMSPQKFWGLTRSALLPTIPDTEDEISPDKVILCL
Sequence of AhR (P35869 11-848, species assumed): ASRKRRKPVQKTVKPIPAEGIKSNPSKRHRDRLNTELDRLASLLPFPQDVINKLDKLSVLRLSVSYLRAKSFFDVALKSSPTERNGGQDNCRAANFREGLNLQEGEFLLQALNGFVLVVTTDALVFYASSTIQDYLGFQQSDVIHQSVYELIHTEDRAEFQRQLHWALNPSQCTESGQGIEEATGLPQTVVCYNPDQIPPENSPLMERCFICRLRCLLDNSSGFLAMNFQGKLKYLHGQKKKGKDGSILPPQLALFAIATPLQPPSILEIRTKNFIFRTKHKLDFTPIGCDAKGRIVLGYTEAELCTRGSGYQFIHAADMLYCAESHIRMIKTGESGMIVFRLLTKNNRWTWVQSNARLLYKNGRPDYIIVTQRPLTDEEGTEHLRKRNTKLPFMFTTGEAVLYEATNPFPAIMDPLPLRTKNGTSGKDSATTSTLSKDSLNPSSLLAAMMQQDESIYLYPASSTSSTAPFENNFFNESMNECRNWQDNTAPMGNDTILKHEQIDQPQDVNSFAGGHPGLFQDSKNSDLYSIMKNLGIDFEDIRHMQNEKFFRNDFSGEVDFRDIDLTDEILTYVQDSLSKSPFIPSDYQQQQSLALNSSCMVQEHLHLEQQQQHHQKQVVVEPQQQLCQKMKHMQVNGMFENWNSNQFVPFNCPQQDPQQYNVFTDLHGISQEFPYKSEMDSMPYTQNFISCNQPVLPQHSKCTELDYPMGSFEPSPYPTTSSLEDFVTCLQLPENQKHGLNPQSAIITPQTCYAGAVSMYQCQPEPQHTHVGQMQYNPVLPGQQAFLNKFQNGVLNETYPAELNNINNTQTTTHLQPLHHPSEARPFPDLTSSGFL
T1 sequence (P37231 238-505 limits assumed, species assumed): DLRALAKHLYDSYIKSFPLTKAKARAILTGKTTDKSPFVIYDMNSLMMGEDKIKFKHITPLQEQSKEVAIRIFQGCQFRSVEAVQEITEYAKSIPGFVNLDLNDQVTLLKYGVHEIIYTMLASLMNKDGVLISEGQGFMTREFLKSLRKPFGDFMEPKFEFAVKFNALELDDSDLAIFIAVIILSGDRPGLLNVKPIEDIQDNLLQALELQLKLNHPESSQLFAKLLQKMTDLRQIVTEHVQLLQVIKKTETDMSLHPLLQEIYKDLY
T3 sequence (O75469 whole entry): as the sequence (O75469 whole entry) above
T3 sequence (Q96SW2 whole entry): as the sequence (Q96SW2 whole entry) above

For the compound `NC(=O)c1cc(Cn2cc(-c3c(-c4ccc(Cl)cc4)nc4c(F)cc(F)cn34)nn2)ccc1Cl` [Compound 11, 2-Chloro-5-((4-(2-(4-chlorophenyl)-6,8-difluoroimidazo[1,2-a]pyridin-3-yl)-1H-1,2,3-triazol-1-yl)methyl)-benzamide], the “agonistic effect on AhR” value in data set [1] is “no agonistic effects”. Also, the “agonistic effect on PPARγ” value in data set [2] is “no agonistic effects”.

Regarding “N-(4-((1-(2,5-dimethoxyphenyl)-5-methyl-1H-1,2,3-triazol-4-yl)sulfonyl)phenyl)-3-(2-(2-(2-(4-(((2-(2,6-dioxopiperidin-3-yl)-1,3-dioxoisoindolin-4-yl)amino)methyl)-1H-1,2,3-triazol-1-yl)ethoxy)ethoxy)ethoxy)propenamide [Compound 36]”, in data set [3] (2 μM, reversal of PXR expression after 72 h), the “PXR degradation, time course” value was “significant degradation of PXR after 12 h”. The “PXR degradation (Western blot)” value in data set [3] (24 h) was “selectively degrades PXR”. Further, the “PXR degradation Dmax” value in data set [3] (24 h, Western blot) is 82%. In addition, the DC50 – broadly, the concentration giving 50% degradation – in data set [3] (24 h, Western blot, read-out: PXR degradation DC50) amounted to 89 nM. Further, the PXR-HiBiT degradation entry in data set [4] is “confirmed PXR degradation”.
